Measured values as given in patent publication US20230093131A1, “ASSESSING AND TREATING ALCOHOL-ASSOCIATED LIVER DISEASE” (Mayo Foundation for Medical Education and Research, priority 2020, published 2023).
Entries after “also recorded” stand apart in the source; their conditions may differ.

Assays:
[1] = tested on: BET proteins (BRD2, 3, 4 and T); settings: Seal et al., Bioorg. Med. Chem. Lett. 2012; cited from earlier work
BRD4 = biological target: T1, BRD4 (Homo sapiens, UniProt O60885); experiment: ChIP-qPCR for BRD4 binding at CXCL super enhancer and CXCL1 promoter sites in LSECs; type: cell-based; settings: with and without TNFα, after inhibitor pretreatment, FIG. 20B, 20E
T1 construct: Soluble chromatin was aliquoted and immunoprecipitated with magnetic beads with antibodies for BRD4 (Abcam ab128874); host or cells: primary human liver sinusoidal endothelial cells (LSECs)
Procedure: B and C) ChIP-qPCR assays for BRD4 binding (B) or NF-κB binding (C) with and without TNFα stimulation was assessed at CXCL super-enhancer and CXCL1 promoter sites after pretreatment with iBET151. D and E) Same experiments were repeated with Celastrol. Enrichment for either CXCL1 promoter (Promoter) or CXCL super enhancer (Super Enhancer) sequence was examined. Sequence enrichment was normalized to input. Box plots show top quartiles and third quartiles; whiskers show maximum and minimum values. Two-way matched-pairs ANOVA was performed on log-transformed input percentage, with Post-hoc Sidak's multiple comparisons correction (n=3).
LSECs were treated with appropriate conditions as outlined separately, and underwent CHIP according to Millipore High-Sens ChIP kit (Millipore MAGNA0025) manufacture protocols. Briefly, cells were crosslinked with formaldehyde (1% final concentration) followed by glycine treatment (100 mM) for 5 minutes each. Cells were washed, collected, and pelleted with centrifugation, and were then lysed with cell lysis buffer. Cells were repelleted and underwent nuclear lysis with provided nuclear lysis buffer, and DNA was sheared with ultrasonification. Soluble chromatin was aliquoted and immunoprecipitated with magnetic beads with antibodies for BRD4 (Abcam ab128874), NF-κB (Cell signaling 8242S), or H3K9me3 (Abcam ab8898) with appropriate isotype controls. […]

[2] = tested on: alcohol fed/LPS C57BL/6 mice; experiment: Murine chronic alcohol feeding/LPS model with iBET151; type: in vivo, mouse
Procedure: FIG. 23: Bromodomain Inhibitor iBET151 Attenuates Liver CXCL Production and Neutrophil Infiltration in a Murine Alcohol Feeding/LPS Model. A) Schematic of alcohol feeding protocol. Mice were fed 5% alcohol diet or pair-fed control diet for 10 days. A subset of mice also received IP injection of iBET151 compound. Alcohol fed mice also received IP injection of LPS on day 11, 8 hours before sacrifice (n=6-8 in pair-fed groups, n=12-14 in alcohol fed groups). […] This response was attenuated by iBET151 injections. Expression levels were normalized to average expression of pair-fed control mice. C) IHC for MPO (neutrophil marker) is shown, with number of neutrophils per low power fields on y-axis. […] For all analysis, two-way ANOVA was performed on normalized expression values for qPCRs or cell counts for IHC staining or ALT values, with Post-hoc Tukey's multiple comparisons correction.
WT C57BL/6 mice (10-12 weeks) were purchased from Envigo Laboratories. Mice were subjected to chronic alcohol feeding to induce alcohol-induced liver injury with modification to the NIAAA model (see, e.g., Kong et al., Sci. Rep., 7(1):9292 (2017)). Briefly, mice were acclimated to liquid diet for 5 days, and were fed either 5% alcohol containing liquid diet or isocaloric pair-fed control diet. On Day 11, LPS (Invivogen tlrl-eblps) was intraperitoneally (IP) injected at 4 mg/kg to alcohol-fed mice. PBS of the same volume was given to pair-fed mice. All mice were sacrificed 8 hours later. A subset of mice, concurrent with alcohol or pair-feeding, was given injection of iBET151 daily. Mice were injected IP with iBET151 (6 mg/kg) in 10% Kleptose 2% DMSO solution or equal volume of carrier solution. On Day 11, drug or vehicle was administered 1 hour before LPS injection.
To generate an in vivo model with more exaggerated inflammation that could simulate human AH, a protocol of the chronic alcohol feeding model was modified by substituting the alcohol binge with a single LPS injection (FIG. 23A; see, also, Kong et al., Sci. Rep., 7(1):9292 (2017)). […] There was a significant increase in serum alanine aminotransferase (ALT) in alcohol fed/LPS mice (FIG. 23D). To assess the role of super enhancer activation in alcohol fed/LPS induced liver inflammation, the pan-BET inhibitor iBET151 was given to mice as daily IP injections alongside alcohol feeding or LPS injection.

NF-κB = experiment: ChIP-qPCR for NF-κB binding at CXCL super enhancer and CXCL1 promoter sites in LSECs; type: cell-based, human; settings: with and without TNFα, after inhibitor pretreatment, FIG. 20C, 20D
Procedure: FIG. 20: Bromodomain inhibitors suppress expression of CXCLs by inhibition of transcription factor binding at CXCL super enhancer and promoter sites. A) LSECs were pretreated with iBET151 ([…]) (n=4). CXCL1, 6, and 8 expression levels were assessed by qPCR. Expression levels were normalized to basal condition and log10 fold change values were plotted. One-way matched-pairs ANOVA analysis was performed with Post-hoc Dunnett's multiple comparison correction. B and C) ChIP-qPCR assays for BRD4 binding (B) or NF-κB binding (C) with and without TNFα stimulation was assessed at CXCL super-enhancer and CXCL1 promoter sites after pretreatment with iBET151. D and E) Same experiments were repeated with Celastrol. Enrichment for either CXCL1 promoter (Promoter) or CXCL super enhancer (Super Enhancer) sequence was examined. Sequence enrichment was normalized to input. Box plots show […] quartiles and third quartiles; whiskers show maximum and minimum values. Two-way matched-pairs ANOVA was performed on log-transformed input percentage, with Post-hoc Sidak's multiple comparisons correction (n=3).
LSECs were treated with appropriate conditions as outlined separately, and underwent CHIP according to Millipore High-Sens ChIP kit (Millipore MAGNA0025) manufacture protocols. […]

LSEC CXCL expression = experiment: CXCL expression (qPCR) in LSECs pretreated with inhibitor, with or without TNFα stimulation; type: cell-based, human
Procedure: A) LSECs were pretreated with iBET151 (0-50 M) (n=4). CXCL1, 6, and 8 expression levels were assessed by qPCR. Expression levels were normalized to basal condition and log10 fold change values were plotted. One-way matched-pairs ANOVA analysis was performed with Post-hoc Dunnett's multiple comparison correction.
LSECs were pretreated with iBET151 (0-50 M) (n=4). CXCL2, 3, and 5 expression levels were assessed by qPCR. Expression levels were normalized to basal condition and log10 fold change values were plotted. One-way matched-pairs ANOVA analysis was performed with Post-hoc Dunnett's multiple comparison correction. Error bars indicate SD.
Primary human LSECs were purchased from ScienCell (Cat #5000) and cultured using standard cell culture techniques. Where appropriate, LSECs underwent TNFα (Peprotech, 300-01A) stimulation at 20 ng/mL. For experiments with BRD4 inhibitor, iBET151 (Cayman Chemical 11181), low passage LSECs were plated at 70% confluency and cultured overnight. Next, LSECs were serum starved for 2 hours in low serum medium (0.5% FBS in basal endothelial medium (Lonza CC-3121)). Inhibitors were added at concentrations indicated to low-serum medium, and cells were incubated in inhibitor containing medium for 2 hours. After inhibitor treatment, medium change was performed with TNFα (Peprotech 300-01A) at 20 ng/mL or control low-serum medium for 90 minutes incubation. LSECs were then collected for analysis. […] RNA was extracted and qPCR performed for expression of CXCLs.

LSECs = experiment: iBET151 LSEC cytotoxicity assay (IncuCyte); type: cell-based, human; settings: iBET151 and/or TNFα, ~30 minute intervals for 10 hours, FIG. 22
Procedure: FIG. 22: iBET151 LSEC cytotoxicity assay. IncuCyte system was utilized to image cells and assess for cytotoxicity. Dying cells (black arrows) are stained green by fluorescent dye, and green cells are counted for each low power image field. Cells were pretreated with control medium or iBET151 and/or TNFα, and quantification for the percentage of dead cells was done at ˜30 minutes intervals for 10 hours starting at 15 minutes. Images shown were acquired after 4 hours of incubation. […] Error bars indicate SD, n=3.

[3] = tested on: S1P receptors on primary human macrophages; experiment: EV-activated macrophage inflammation (AH EVs on PBMC-derived macrophages); type: cell-based
Procedure: FIG. 14: EV-activated macrophage inflammation is SIP-dependent. A) TNF-α and B) IL-1β responses in primary human macrophages from AH subjects treated with EVs derived from HD (HD EV) or AH (AH EV) for 4 hours showing a significant increase in both cytokines by AH-EVs.
PBMC-derived macrophages were treated with EVs derived from HD or AH subjects.

AH patients = experiment: EV counts in AH patients after IL-22 treatment; type: in vivo, human
Description: (§1) IL-22 is being investigated as a potential therapy in AH due to its hepatoprotective effects. To investigate if IL-22 can inhibit ethanol-induced EV release, HepG2Cyp2E1 (human hepatoma cells that can metabolize ethanol due to the enforced expression of cytochrome P450 2E1) cells were pretreated with IL-22 prior to the addition of ethanol. Subsequently, EVs were isolated from cell culture supernatants by UTC and quantified with NTA. Similarly, IL-22 reduced EV counts in AH patients after treatment.

HepG2Cyp2E1 cells = experiment: Ethanol-induced EV release from HepG2Cyp2E1 cells (UTC isolation, NTA count); type: cell-based, human; settings: HepG2Cyp2E1 cells pretreated with IL-22 prior to ethanol
Description: as §1

[4] = alcohol fed/LPS mice, iBET151 6 mg/kg IP daily, FIG. 23B

COc1cc2c(cc1-c1c(C)noc1C)ncc1[nH]c(=O)n([C@H](C)c3ccccn3)c12 [iBET151]
activity against both bromodomains (BD) of all four BET proteins [1]: highly specific activity
BRD4 occupancy/binding at CXCL super enhancer and CXCL1 promoter sites (ChIP) (BRD4): inhibitory effect
cleaved caspase 3 level in liver (Western blot) ([2]; alcohol fed/LPS mice given iBET151, FIG. 26A): decrease; also recorded: attenuated
hepatic expression of Cxcl1 (qPCR) [2, 4]: significantly decreased
hepatic expression of Cxcl2 (qPCR) [2, 4]: significantly decreased
neutrophil infiltration of the liver (Ly6g expression, MPO IHC) ([2]; alcohol fed/LPS mice, iBET151 6 mg/kg IP daily, FIG. 23B, 23C): decreased
steatosis (BODIPY 493/503 stain) ([2]; alcohol fed/LPS mice, iBET151 6 mg/kg IP daily, FIG. 25, 6 mg/kg): decreased; also recorded: attenuated
liver CXCL chemokine production/elevation (qPCR) ([2]; alcohol feeding and LPS injection, IP iBET151, figure legends FIG. 19, FIG. 23B): attenuated
neutrophil marker Ly6g (qPCR) ([2]; alcohol/LPS mice, IP iBET151, figure legends FIG. 19, FIG. 23B): reduced; also recorded: attenuated
Malondialdehyde (MDA), lipid peroxidation, in mice livers ([2]; pair-fed or EtOH+LPS, vehicle or iBET151, FIG. 26B): no difference among treatment groups
8-Hydroxy-2′-deoxyguanosine (8-OHdG), DNA oxidation, in mice livers ([2]; pair-fed or EtOH+LPS, vehicle or iBET151, FIG. 26C): no difference among treatment groups
NF-κB binding at CXCL super enhancer and CXCL1 promoter sites (ChIP) (NF-κB): trend for decreased
CXCL expression after TNFα stimulation (LSEC CXCL expression; HHSEC pretreated with varying amounts of iBET151, FIG. 18): suppresses
CXCL2, 3, 5 expression (qPCR) (LSEC CXCL expression; LSECs pretreated with iBET151 (0-50 M), with TNFα and without TNFα, FIG. 21): linear trend for decreasing
LSEC CXCL expression (LSEC CXCL expression; in vitro, in the presence of iBET151, FIG. 20A, 21A, iBET151 0-50 M, TNFα 20 ng/mL): significantly decreased
cytotoxicity (percentage of dead cells) (LSECs): without significant cytotoxicity; also recorded: no significant difference among treatment groups

CCCCCCCCc1ccc(CCC(N)(CO)CO)cc1 [FTY720]
AH EV-activated proinflammatory signaling in macrophages ([3]; PBMC-derived macrophages treated with AH EVs): significantly inhibited
TNF-α response to AH EVs ([3]; primary human macrophages from AH subjects, EVs for 4 hours, FTY 720 1 μM, FIG. 14A): significantly reduced
IL-1β response to AH EVs ([3]; primary human macrophages from AH subjects, EVs for 4 hours, FTY 720 1 μM, FIG. 14B): significantly reduced

B1: IL-22: IL-22 polypeptide, hepatoprotective cytokine investigated as potential therapy in AH (protein, UniProt Q9GZX6 34-179, looked up)
Interleukin-22: APISSHCRLDKSNFQQPYITNRTFMLAKEASLADNNTDVRLIGEKLFHGVSMSERCYLMKQVLNFTLEEVLFPQSDRFQPYMQEVVPFLARLSNRLSTCHIEGDDLHIQRNVQKLKDTVKKLGESGEIKAIGELDLLFMSLRNACI
EV counts in AH patients (AH patients): reduced
ethanol-induced EV release (HepG2Cyp2E1 cells): significantly inhibited
